A short description of assay [1]: Rat obesity induced by cafeteria diet, preventative pre-treatment (Table 3). Conditions: 300 mg/kg oral, after two weeks on cafeteria diet; obese control 308 ± 17, lean control 280 ± 16; * lower than obese controls, ‡ indistinguishable. It counts as in vivo, Wistar Kyoto rats. As to the method: (§1) In a further experiment, the effect of various molecules at a single dose (600 mg/kg) was investigated. […] In this sense, modification on the α-carbon and the double bond in cis configuration are crucial elements for producing the therapeutic effect indicated above. […] Finally, the effect of α-derivatives of cis-monounsaturated fatty acids on the prevention of obesity was investigated. For this, a model of rat obesity induced by a cafeteria diet, where the hypercaloric food increases the weight of the animals very markedly, was used. There were various experimental groups (see Table 3), each of which consisted of 6 female Wistar Kyoto rats of 250-300 g in weight. All the animals received a standard diet for 2 weeks. In addition, 2 of the groups received an oral preventative pre-treatment of vehicle and the other groups received 300 mg/kg of the fatty acids indicated below. Afterwards, one of the control groups was maintained on a standard diet (lean control) and the other was fed on a cafeteria diet (obese control). The treated animal groups were fed on the cafeteria diet. Preventative pre-treatment was maintained for all the groups. After two weeks on these diets, the lean control group had increased their body weight by an average of 16±16 g, while the obese control group had increased their body weight by an average of 43±17 g (statistically significance difference, p<0.01).
(§2) The weight of treated animals was statistically less than the weight of obese control rats and statistically indistinguishable from that of lean control rats.

The test system of assay [2] is A549 cells. Briefly: Growth/viability of A549 lung cancer cells in culture (cell count). In kind it is cell-based, human. As to the method:
FIG. 3A. Cancer cells (A549) were treated with various concentrations of OHOD and MOD11 to determine whether the effect was dependent on the concentration. […] These cells were treated with different concentrations (0-400 μM) of OHOD and MOD11 and the number of cells was determined by flow cytometry.
FIG. 3B. Cancer cells (A549) were treated with compounds indicated on the horizontal axis for 48 hours at 150 μM. Then, the cells were counted and their number and percent of untreated (control) represented on the vertical axis.
Also, a series of α-derivatives of cis-monounsaturated fatty acids were used to investigate their effectiveness in cancer treatment. Two types of experiment were performed. Firstly, the dependency of the anti-tumour effect on concentration was investigated. To perform these experiments, human lung cancer cells (A549) were cultivated in RPMI medium, supplemented with 10% foetal bovine […], 10 mM Hepes (pH 7.4), 2 mM glutamine, 2 g/l bicarbonate, 1 g/l glucose, 100 units/ml penicillin, 0.1 mg/ml streptomycin, 0.25 μg/ml Amphotericin B, at 37° C. and in the presence of 5% CO2. In a first experimental series, these cells were treated with various concentrations (0-400 μM) of OHOD and MOD11 and the number of cells was determined by flow cytometry (FIG. 3A). […] In a second series, the anti-tumour effectiveness on A549 lung cancer cells was investigated at a single concentration (150 μM) and a time of 48 hours (FIG. 3B). […] Obviously, among the previous molecules, some lacked both modifications on the α-carbon and the double bond in cis configuration (EO, HDO, ODO) and had no therapeutic effect. […]

Assay [3] has as its system cyclooxygenase-2 (COX-2). Briefly: Cellular concentration of COX-2 in U937 differentiated monocytes (immunoblot). It counts as cell-based, human. To be noted: 250 μM, 6 hours; compared with fatty acids not of Formula I, p<0.05. The protocol:
FIG. 19B. Effect of various fatty acids in the inhibition (concentration of protein) of cyclooxygenase-2 (immunoblot of COX-2). […] Cell cultures (U937 differentiated monocytes) were treated with the fatty acids of the invention (250 μM, 6 hours).
(§3) In an additional study on the release of various proinflammatory cytokines (IL-1b, IL-6, IL-8, IL-10) and TNF-α in U937 monocytes stimulated with bacterial lipopolysaccharide (LPS), a marked reduction in the levels of these molecules was observed after treatments with OHHD at a concentration of 250 μM and 72 h incubation (Table 4). The effect of the α-derivatives of cis-monounsaturated fatty acids (250 μM, 6 h) on the activity and expression of the COX-1 and COX-2 cyclooxygenases was investigated in the same system.
(Immunoblotting shows a protein as a band on a membrane.)

The target in assay [4] is T1, cyclooxygenases-1 (COX-1) (Homo sapiens, UniProt P23219).
T1 construct: endogenous in cells; host or cells: U937 differentiated monocytes
T1 sequence (P23219 24-599): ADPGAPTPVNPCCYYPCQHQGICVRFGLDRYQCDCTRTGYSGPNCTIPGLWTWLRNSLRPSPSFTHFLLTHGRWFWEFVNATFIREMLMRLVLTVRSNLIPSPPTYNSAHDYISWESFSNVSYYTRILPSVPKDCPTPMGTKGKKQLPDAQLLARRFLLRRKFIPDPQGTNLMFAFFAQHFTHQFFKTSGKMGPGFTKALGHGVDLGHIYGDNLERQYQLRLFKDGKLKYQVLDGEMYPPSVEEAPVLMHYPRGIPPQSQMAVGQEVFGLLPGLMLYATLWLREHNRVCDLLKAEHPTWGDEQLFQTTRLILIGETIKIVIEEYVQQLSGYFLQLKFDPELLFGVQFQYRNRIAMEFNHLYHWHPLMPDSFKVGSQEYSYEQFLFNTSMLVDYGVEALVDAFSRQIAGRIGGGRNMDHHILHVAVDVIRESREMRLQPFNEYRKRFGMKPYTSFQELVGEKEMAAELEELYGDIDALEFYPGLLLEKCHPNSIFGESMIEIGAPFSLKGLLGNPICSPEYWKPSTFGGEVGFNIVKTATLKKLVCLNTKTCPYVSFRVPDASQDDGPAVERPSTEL
Kind of assay: COX-1 activity in U937 differentiated monocytes (Cayman COX-1 inhibitor screening system). Conditions: 250 μM, 6 hours; compared with fatty acids not of Formula I, p<0.05. It counts as cell-based. The protocol: FIG. 19A. Effect of various fatty acids in the inhibition of the activity of cyclooxygenases-1 (COX-1) (Cayman COX-1 inhibitor screening system). […] Cell cultures (U937 differentiated monocytes) were treated with the fatty acids of the invention (250 μM, 6 hours).
as §3

The subject of assay [5] is A549 cells of human lung adenocarcinoma. Kind of assay: Prevention of tumour development in nude mice injected with A549 cells. It counts as in vivo. Conditions: 400 mg/kg per day oral, 2 weeks before and one month after A549 injection, compared with fatty acids not of Formula I, p<0.05. An excerpt: FIG. 2. Preventative effect of various fatty acids against tumour development. […] Animals received treatment before injection of tumour cells and the treatment was subsequently maintained. Animals of the control group were not treated and the volume of their tumours was taken as the reference value (100%).
To determine whether the fatty acids of the invention have applications in the prevention of the development of tumour processes, an animal cancer model was used. This model consisted of immune-deprived animals ([Crl:Nu(Ico)-Fox 1] nude mice in which non-microcytic human lung cancer cells were injected (5×10^6 A549 cells per animal). The control group (infected with cancer cells but untreated) started to develop tumours that were visible after a few days. The sizes of the tumours were measured for the first time at 10 days after implanting the tumour and measurements continued for up to 31 days after the implantation with a digital calliper. The volume of the tumours was calculated with the following equation: v=w^2×l/2 where v is the volume of the tumour, w is its width and l is the length. Preventative treatments against development of the cancer were applied. To carry out these treatments, 400 mg/kg were administered per day for 2 weeks before the injection of tumour cells. This treatment was continued for one month after the implantation of the tumour cells and the volume of the tumours in the animals was measured. Each experimental group was composed of 8 animals. Oral administration of α-derivatives of cis-monounsaturated fatty acids prevented cancer development (A549 cells of human lung adenocarcinoma) (FIG. 2). […] Therefore it was concluded that the introduction of a double bond in the cis configuration in the structure of the fatty acid is a critical factor in the prevention and treatment by fatty acids of cancer development.

The nature of assay [6]: Body weight of rats on cafeteria diet, no pre-treatment (Table 5). In kind it is in vivo, rat. To be noted: cafeteria diet for 2 weeks, 300 mg/kg daily oral, no pre-treatment.
Text: as §2

The subject of assay [7] is hypertensive rats. Kind of assay: Arterial pressure in hypertensive rats after 8-day treatment (Table 5). In kind it is in vivo, rat. Conditions: arterial pressure, hypertensive rats, 8-day treatment, 400 mg/kg oral.
In assay [8] the test system is SF767 human brain cancer cells. Kind of assay: Tumour volume in nude mice infected with SF767 human brain cancer cells. It counts as in vivo. Conditions: 600 mg/kg daily for 50 days, p<0.001 vs control. As to the method: FIG. 6A. Effect of different salts of OHOD on human lung cancer in an animal cancer model. The volume of tumours in nude mice infected with SF767 human brain cancer cells (expressed as a percent compared to control) receiving various treatments. The animals received a vehicle (water: Control), 600 mg/kg of OHOD in the form of free fatty acid (OHOD), 600 mg/kg of sodium salt of OHOD (Na-OHOD) or 600 mg/kg of ammonium salt of OHOD (NH3OHOD) daily for 50 days.
FIG. 6B. Effect of different salts of OHOD on human lung cancer in an animal cancer model. The effect of different doses of sodium salt of OHOD (Na-OHOD) are shown on tumour volumes in mice infected with SF767 cells and treated with vehicle (control, 0 mg/kg), 100 mg/kg (100), 200 mg/kg (200), 400 mg/kg (400) and 600 mg/kg (600) for 50 days. * p<0.05; ***p<0.001.
One important characteristic of the molecules covered in the present invention is that they can form various types of salts. FIG. 6A and Table 5 show the therapeutic effects of various α-derivatives of cis-monounsaturated fatty acids and their salts. […] The specificity of this effect is determined by the relation between the dose and the effect these molecules have on the volume of human tumours implanted in animals (FIG. 6B).

Assay [9] deals with SF767 human tumour cells. Briefly: Growth of SF767 tumour cells in culture. In kind it is cell-based. To be noted: concentration that reduces the number of cells to half. The protocol: In a second experimental series, designed to discover whether these molecules are effective in treatment of different types of tumours, the effect of OHOD at various concentrations on human cells of different types of cancer was studied. These experiments were performed as described before, except that the M220 and HT-29 cell lines were cultured in DMEM medium and the MDA-MB-231 line was incubated in Leibowitz L-15 medium supplemented with 15% foetal bovine […]. […] Where the nature of the tumour process requires, application can be topical (use on the skin of active products for the treatment of melanoma and other cutaneous abnormalities of cancerous nature), which can be considered as cosmetic treatments when attempts are made to correct aesthetic defects.

Assay [10] is described as follows: Levels of cholesterol, triglycerides and glucose in rats after oral treatment. It counts as in vivo, rat. To be noted: rats, daily dose of 600 mg/kg oral; untreated controls = 100%. As to the method: FIG. 13. The four bars, from left to right respectively, show the effect of treatments with vehicle (control, first bar), OHOD at 200 mg/kg (second bar), OHOD at 400 mg/kg (third bar) and OHOD at 600 mg/kg (fourth bar) on the cholesterol levels (group of four bars to the left), triglycerides (group of four bars in the middle) and glucose (group of four bars to the right). The treatments were oral in all cases and were maintained for 30 days. The values indicated are the average obtained in 6 animals per group.
FIG. 14. Effect of treatment with vehicle (control) or with the fatty acids of the invention (600 mg/kg) on the levels of cholesterol, triglycerides and glucose. The values indicated are the average of the values obtained in 6 animals. Each group of three bars represents treatment with a different fatty acid with the left bar corresponding to cholesterol, the middle bar to triglycerides and the right bar to glucose.
Metabolic diseases form a set of pathologies characterised by the accumulation or deficit of certain molecules (cholesterol, triglycerides, glucose, etc.) in the serum or tissues. These changes are the reflection of dysfunctions that are normally associated with errors in the activity of certain enzymes or in the control of these proteins. Among the most important metabolopathies are hypercholesterolemia (elevated levels of cholesterol), hypertriglyceridemia (elevated levels of triglycerides) and diabetes (elevated levels of glucose). These pathologies have high rates of incidence, morbidity and mortality, so that treatment is a first order necessity. […] For these experiments, the dose of fatty acid indicated (0, 200, 400 and 600 mg/kg) was supplied daily via the oral route. At the end of the treatment (30 days), blood was sampled from control and treated animals (n=6) and the levels of cholesterol, triglycerides and glucose were determined using standard colorimetric methods.
as §1

Structures are written as SMILES.

As for `CCCCCC/C=C\CCCCCCCCC(C)C(=O)O` (stereo not drawn) [MOD11, α-Methyl-cis-Δ11-octadecenoic], the Final weight in assay [1] was 274 ± 18* g. Besides, the “effect on tumour cells at 200 to 400 μM” value in assay [2] (Doses of 200 to 400 μM, A549) is on record as “total elimination of tumour cells”. Moreover, in assay [3], the “cellular concentration of COX-2 (% of control)” value is “more significant effect”. Further, the “inhibition of COX-1 activity (% of control)” value (shortened to “inhibition … (% of control)”) in [4] was “more significant effect”. Besides, the “tumour volume (prevention of tumour development)” value (“tumour volume” for short) in assay [5] was “more significant effect”.
In the case of `CCCCCCCC/C=C\CCCCCCC(O)C(=O)O.N` (centres unmarked) [NH3-OHOD], the IC50 (as a rule, the midpoint of a concentration-inhibition curve) in [2] (concentration that reduces the number of cells to half) was determined as 81 µM. Besides, the “Body weight (g) (control = 311 g)” value in assay [6] was 290 g. Further, the “PA (control 214 mmHg)” value in [7] was 149 mmHg. For the same compound, the “volume of tumours (percent compared to control)” value in [8] is listed as “significant reductions in the size of tumours”. The concentration for half-maximal inhibition (IC50) in assay [9] is 85 µM. Moreover, in assay [10], the “% control CHO (cholesterol)” value is recorded as 59 % control and the “% control TG (triglycerides)” value is on record as 62 % control.
As for `CCCCCC/C=C\CCCCCCCCC(O)C(=O)O` (stereo not drawn) [OHOD11, α-Hydroxy-cis-Δ11-octadecenoic], the Final weight in [1] was 269 ± 12* g. For the same compound, the “cellular concentration of COX-2 (% of control)” value in assay [3] is listed as “more significant effect”. Besides, the “inhibition … (% of control)” value in assay [4] is “more significant effect”. The “tumour volume” value in [5] was “more significant effect”.
On to `CCCCCCCC/C=C\CCCCCCC(C)C(=O)O` (stereo not drawn) [MOD, α-Methyl-cis-Δ9-octadecenoic], for which, in [1], the Final weight is given as 268 ± 12* g. The “cellular concentration of COX-2 (% of control)” value in assay [3] is recorded as “more significant effect”. Also, the “inhibition … (% of control)” value in assay [4] is listed as “more significant effect”. Also, the “tumour volume” value in assay [5] is recorded as “more significant effect”.
